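96-well plates; 48 h exposure; 5 concentrations. Endpoints by linear interpolation between flanking doses. Not reached: highest tested concentration assigned. GI50: concentration for 50% inhibition of growth.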 Calls of active or inactive are those of the source. No stated cut-off is given here; in the data, active = GI50 up to about 1.1 µM and inactive = higher.
Legend:
Assay in all cases: NCI anticancer screen, dose series, 48 h
HL-60 = tested on: HL-60
NCI-H226 = tested on: NCI-H226
Malme-3M = tested on: Malme-3M
UACC-62 = tested on: UACC-62
OVCAR-5 = tested on: OVCAR-5
M14 = tested on: M14
SN12C = tested on: SN12C
HCT-116 = tested on: HCT-116
SF-539 = tested on: SF-539
NCI-H460 = tested on: NCI-H460
NCI-H522 = tested on: NCI-H522
HOP-92 = tested on: HOP-92
CAKI-1 = tested on: CAKI-1
SK-MEL-28 = tested on: SK-MEL-28
HT-29 = tested on: HT-29
ACHN = tested on: ACHN
KM12 = tested on: KM12
TK-10 = tested on: TK-10
T47D = tested on: T47D
NCI/ADR-RES = tested on: NCI/ADR-RES

Measured: GI50

N[C@H]1CCN(c2c(F)cc3c(=O)c(C(=O)O)cn4c3c2Oc2c-4ccc3c2ccc2ccccc23)C1
inactive: HL-60 4.21 µM | NCI-H226 4.02 µM | Malme-3M 16.9 µM | UACC-62 5.68 µM | OVCAR-5 1.58 µM | M14 2.15 µM | SF-539 1.25 µM | HOP-92 2.46 µM | CAKI-1 2.79 µM | SK-MEL-28 2.52 µM | T47D 2.65 µM | NCI/ADR-RES 2.8 µM
active: SN12C 0.774 µM | HCT-116 0.492 µM | NCI-H460 0.115 µM | NCI-H522 0.498 µM | HT-29 0.117 µM | ACHN 0.23 µM | KM12 1 µM | TK-10 0.408 µM

CC1=CC(=O)CC(C)(C)C1(O)/C=C/C(C)=C/C(=O)O (stereo unspecified)
inactive: HL-60 > 100 µM | NCI-H226 > 100 µM | Malme-3M > 100 µM | UACC-62 > 100 µM | OVCAR-5 > 100 µM | M14 > 100 µM | SN12C > 100 µM | HCT-116 > 100 µM | SF-539 > 100 µM | NCI-H460 > 100 µM | NCI-H522 > 100 µM | HOP-92 > 100 µM | CAKI-1 > 100 µM | SK-MEL-28 > 100 µM | HT-29 > 100 µM | ACHN > 100 µM | KM12 > 100 µM | TK-10 > 100 µM | T47D > 100 µM | NCI/ADR-RES > 100 µM

O=c1[nH]nc(-c2ccccc2)n1/N=C/c1ccc([N+](=O)[O-])cc1
inactive: HL-60 > 100 µM | NCI-H226 27.6 µM | Malme-3M > 100 µM | UACC-62 > 53.8 µM | OVCAR-5 > 100 µM | M14 96.2 µM | SN12C > 62.1 µM | HCT-116 25 µM | SF-539 17.1 µM | NCI-H460 22.9 µM | NCI-H522 > 100 µM | HOP-92 10 µM | CAKI-1 12.3 µM | SK-MEL-28 > 100 µM | HT-29 > 100 µM | ACHN 11.4 µM | KM12 > 100 µM | TK-10 20 µM | T47D 13.8 µM | NCI/ADR-RES 20.1 µM

COCCOC1=CC(=O)c2c(O)ccc(O)c2C1=O
inactive: NCI-H226 2.23 µM | UACC-62 1.85 µM | OVCAR-5 1.61 µM | SN12C 1.63 µM | SF-539 1.73 µM | NCI-H460 1.58 µM | NCI-H522 2.29 µM | HOP-92 2.13 µM | CAKI-1 2.59 µM | SK-MEL-28 1.52 µM | ACHN 1.87 µM | KM12 1.93 µM | TK-10 1.91 µM | T47D 2.36 µM | NCI/ADR-RES 2.44 µM
active: HL-60 0.52 µM | Malme-3M 0.167 µM | M14 0.186 µM | HCT-116 0.285 µM | HT-29 0.585 µM

Cc1sc2nc3n(c(=O)c2c1C)N=C(c1ccc(Cl)cc1)CS3
inactive: HL-60 > 100 µM | NCI-H226 > 100 µM | Malme-3M > 100 µM | UACC-62 > 100 µM | OVCAR-5 > 100 µM | SN12C > 100 µM | HCT-116 > 100 µM | SF-539 > 100 µM | NCI-H460 > 100 µM | NCI-H522 > 100 µM | HOP-92 > 100 µM | CAKI-1 > 100 µM | SK-MEL-28 > 100 µM | HT-29 > 100 µM | ACHN > 100 µM | KM12 > 100 µM | T47D > 100 µM | NCI/ADR-RES > 100 µM

COC(=O)Cc1c(C2=Nc3ccccc3C2(O)CC(=O)OC)[nH]c2ccccc12 (stereo unspecified)
inactive: HL-60 22 µM | NCI-H226 > 100 µM | Malme-3M 22.6 µM | UACC-62 > 100 µM | OVCAR-5 54.6 µM | M14 78.2 µM | SN12C 68.5 µM | HCT-116 31.8 µM | SF-539 29.6 µM | NCI-H460 > 100 µM | NCI-H522 18.9 µM | HOP-92 26.5 µM | CAKI-1 23 µM | SK-MEL-28 61.5 µM | HT-29 > 100 µM | ACHN 34.9 µM | KM12 58.6 µM | TK-10 > 100 µM | T47D 15.5 µM | NCI/ADR-RES > 100 µM

CC(C)NC(=O)OCc1c(COC(=O)NC(C)C)c(-c2cc[n+](COC(=O)C(C)C)cc2)n2c1CCC2
inactive: HL-60 27.8 µM | NCI-H226 > 100 µM | Malme-3M > 100 µM | UACC-62 48.9 µM | OVCAR-5 > 100 µM | M14 99.5 µM | SN12C 62.1 µM | HCT-116 > 100 µM | SF-539 17.7 µM | NCI-H460 41.6 µM | NCI-H522 > 72.1 µM | HOP-92 69.7 µM | CAKI-1 20 µM | SK-MEL-28 > 100 µM | HT-29 > 100 µM | ACHN 12.2 µM | KM12 > 100 µM | TK-10 41.5 µM | T47D > 94.8 µM | NCI/ADR-RES > 100 µM

NC(=S)NN=Cc1ccccc1OCc1cccc(COc2ccccc2C=NNC(N)=S)n1
inactive: HL-60 > 100 µM | NCI-H226 > 34.4 µM | Malme-3M > 54.3 µM | UACC-62 19.3 µM | OVCAR-5 29.9 µM | M14 > 100 µM | SN12C > 79.3 µM | HCT-116 32.7 µM | SF-539 7.93 µM | NCI-H460 > 58.6 µM | NCI-H522 > 64.9 µM | HOP-92 3.72 µM | CAKI-1 > 100 µM | SK-MEL-28 > 100 µM | HT-29 > 100 µM | ACHN 20.6 µM | KM12 > 100 µM | TK-10 14.4 µM | T47D > 38.2 µM | NCI/ADR-RES 40.6 µM

C=CCOc1ccc2c(C)cc(=O)oc2c1C
inactive: HL-60 32.4 µM | NCI-H226 > 100 µM | Malme-3M > 100 µM | UACC-62 82.6 µM | OVCAR-5 > 100 µM | M14 46.5 µM | SN12C 98.4 µM | HCT-116 40.5 µM | SF-539 41.2 µM | NCI-H460 53.8 µM | NCI-H522 29.2 µM | HOP-92 54.3 µM | CAKI-1 24.1 µM | SK-MEL-28 > 100 µM | HT-29 59.2 µM | ACHN 51.8 µM | KM12 59.7 µM | T47D 47.9 µM | NCI/ADR-RES 46.8 µM

CC(=O)O[C@H]1CC[C@@]2(C)C(=CC[C@@H]3[C@@H]2CC[C@]2(C)C(=N/O)/C(=C\c4ccccc4)C[C@@H]32)C1
inactive: HL-60 14.5 µM | NCI-H226 12.5 µM | Malme-3M 4.14 µM | UACC-62 5.94 µM | OVCAR-5 17.1 µM | M14 4.9 µM | SN12C 14.8 µM | HCT-116 6.12 µM | SF-539 15.9 µM | NCI-H460 17.5 µM | NCI-H522 3.53 µM | HOP-92 41.1 µM | CAKI-1 24.7 µM | SK-MEL-28 12.7 µM | HT-29 3.99 µM | ACHN 23.6 µM | KM12 3.2 µM | TK-10 24.2 µM | T47D 7.53 µM | NCI/ADR-RES 7.08 µM

O=S(=O)(Nc1nc2ccccc2nc1N1CCCCCC1)c1ccccc1
inactive: HL-60 23.2 µM | NCI-H226 27.9 µM | Malme-3M 25.4 µM | UACC-62 18.4 µM | OVCAR-5 57.3 µM | M14 22.5 µM | SN12C > 100 µM | HCT-116 > 100 µM | SF-539 29.2 µM | NCI-H460 15.7 µM | NCI-H522 19.1 µM | HOP-92 7.8 µM | CAKI-1 > 100 µM | SK-MEL-28 28.2 µM | HT-29 27.6 µM | ACHN 21.1 µM | KM12 15.8 µM | TK-10 16.8 µM | T47D > 100 µM | NCI/ADR-RES 25.8 µM

O=C(NCCNCCCNC(=O)c1cc(-c2ccccc2)nc2ccccc12)c1cccc(O)c1O
inactive: HL-60 3.21 µM | NCI-H226 18.5 µM | Malme-3M 3.82 µM | UACC-62 2.27 µM | OVCAR-5 2.28 µM | M14 1.46 µM | SN12C 1.95 µM | HCT-116 1.47 µM | SF-539 2.48 µM | NCI-H460 2.36 µM | NCI-H522 6.82 µM | HOP-92 14.9 µM | CAKI-1 5.4 µM | SK-MEL-28 1.72 µM | HT-29 4.88 µM | ACHN 2.43 µM | KM12 4.44 µM | TK-10 1.63 µM | T47D 3.3 µM | NCI/ADR-RES 22.4 µM

O=C(O)CNCc1c2ccccc2nc2ccccc12
inactive: HL-60 7.64 µM | NCI-H226 52.1 µM | Malme-3M > 74.5 µM | UACC-62 44.7 µM | OVCAR-5 > 85.9 µM | M14 47.6 µM | SN12C 44.4 µM | HCT-116 12.1 µM | SF-539 29.9 µM | NCI-H460 39.2 µM | NCI-H522 22 µM | HOP-92 15.6 µM | CAKI-1 35.7 µM | SK-MEL-28 59.6 µM | HT-29 27.3 µM | ACHN 31.1 µM | KM12 32.3 µM | TK-10 61.9 µM | T47D 31.7 µM | NCI/ADR-RES 26.5 µM

O=C(O)CCCCC1CCSS1 (stereo not drawn) [LIPOIC ACID, ALPHA]
inactive: HL-60 34.3 µM | NCI-H226 > 100 µM | Malme-3M 43.1 µM | OVCAR-5 > 100 µM | M14 77.1 µM | SN12C > 10 µM | HCT-116 > 100 µM | SF-539 > 100 µM | NCI-H460 > 100 µM | NCI-H522 > 100 µM | HOP-92 30 µM | CAKI-1 > 100 µM | SK-MEL-28 > 100 µM | HT-29 > 100 µM | ACHN > 100 µM | KM12 > 100 µM | TK-10 > 100 µM | T47D > 100 µM | NCI/ADR-RES > 100 µM

From ChEMBL document CHEMBL1201862, “PubChem BioAssay data set” (2004)
